Measured values: patent publication US9717243B2, “Piperidinecarboxylic acid derivatives as fungicides” (priority 2013, dated 2017)

assay: LogP by HPLC on reversed phase columns (EEC directive 79/831 Annex V.A8); type: physicochemical; conditions: not given
Protocol: Calibration was done with straight-chain alkan2-ones (with 3 to 16 carbon atoms) with known LogP values (measurement of LogP values using retention times with linear interpolation between successive alkanones). Lambda-max-values were determined using UV-spectra from 200 nm to 400 nm and the peak values of the chromatographic signals.

Compound	Log P[a]
CS(=O)(=O)Oc1ccccc1C1CC(c2csc(C3(C(=O)OC4CCOC4)CCN(C(=O)Cn4nc(C(F)F)cc4C(F)F)CC3)n2)=NO1 (centres unmarked) [Example I-57]	3.21
C#CCOc1ccc(F)c(F)c1C1CC(c2csc(C3(C(=O)OC)CCN(C(=O)Nc4cc(C(F)(F)F)nn4C)CC3)n2)=NO1 (centres unmarked) [Example I-81]	3.35
N#Cc1cccc(NC(=O)N2CCC(C#N)(C(=O)O)CC2)c1 [IV-31]	1.29
CC(C)(C)OC(=O)C1(C#N)CCN(C(=O)Nc2ccccc2)CC1 [IV-20]	2.82
CC(C)(C)OC(=O)C1(C#N)CCN(C(=O)Nc2ccc(F)cc2)CC1 [IV-22]	2.96
CCC(C)NC(=O)C1(C#N)CCN(C(=O)Cc2ccc(Cl)cc2)CC1 (centres unmarked) [IV-37]	2.46
CC(C)OC(=O)C1(C(N)=S)CCN(C(=O)Cn2nc(C(F)F)cc2C(F)F)CC1 [II-9]	2.52
COC(=O)C1(c2nc(C3=NOC(c4ccccc4)C3)cs2)CCN(C(=O)Cn2nc(C(F)F)cc2C)CC1 (centres unmarked) [Example I-63]	3.17
NC(=S)C1(C(=O)OCc2ccccc2)CCN(C(=O)Cn2nc(C(F)F)cc2C(F)F)CC1 [II-4]	2.90
CCOC(=O)C1(C#N)CCN(C(=O)Cn2nc(C(F)F)cc2C(F)F)CC1 [IV-11]	2.55
N#CC1(C(=O)OC2CCOC2)CCN(C(=O)Cn2nc(C(F)F)cc2C(F)F)CC1 (centres unmarked) [IV-1]	2.26
CC(C)=CCNC(=O)C1(C#N)CCN(C(=O)Nc2ccc(Cl)cc2)CC1 [IV-43]	2.68
CC(C)=CCN(C)C(=O)C1(C#N)CCN(C(=O)Nc2ccc(Cl)cc2)CC1 [IV-46]	3.03
C#CCOc1ccccc1C1CC(c2csc(C3(C(=O)OC(C)C)CCN(C(=O)Cn4nc(C(F)F)cc4C(F)F)CC3)n2)=NO1 (centres unmarked) [Example I-33]	4.14
COC(=O)C1(c2nc(C3=NOC(c4c(F)cccc4F)C3)cs2)CCN(C(=O)Cn2nc(C)cc2C(F)F)CC1 (centres unmarked) [Example I-75]	3.11
C=CCOC(=O)C1(c2nc(C3=NOC(c4c(Cl)cccc4OS(C)(=O)=O)C3)cs2)CCN(C(=O)Cn2nc(C(F)F)cc2C(F)F)CC1 (centres unmarked) [Example I-41]	3.80
CS(=O)(=O)Oc1cccc(Cl)c1C1CC(c2csc(C3(C(=O)OCc4ccccc4)CCN(C(=O)Cn4nc(C(F)F)cc4C(F)F)CC3)n2)=NO1 (centres unmarked) [Example I-35]	4.19
CC(C)(C)OC(=O)C1(C#N)CCN(C(=O)Nc2cccc(C#N)c2)CC1 [IV-29]	2.88
CCC(C)NC(=O)C1(C#N)CCN(C(=O)Nc2cccc(C#N)c2)CC1 (centres unmarked) [IV-36]	1.28

Compound	Log P[a]
C=CCOC(=O)C1(c2nc(C3=NOC(c4ccccc4)C3)cs2)CCN(C(=O)Cn2nc(C(F)F)cc2C(F)F)CC1 (centres unmarked) [Example I-44]	3.85
N#CC1(C(=O)O)CCN(C(=O)Nc2ccccc2)CC1 [IV-21]	1.16
CCC(C)NC(=O)C1(C#N)CCN(C(=O)Nc2ccccc2)CC1 (centres unmarked) [IV-45]	2.13
CC(C)=CCN(C)C(=O)C1(C#N)CCN(C(=O)Nc2ccc(F)cc2)CC1 [IV-40]	2.71
C#CCOc1ccc(F)c(F)c1C1CC(c2csc(C3(C(=O)OC)CCN(C(=O)Cn4nc(C(F)(F)F)cc4C)CC3)n2)=NO1 (centres unmarked) [Example I-73]	3.71
CC(C)OC(=O)C1(C#N)CCN(C(=O)Cn2nc(C(F)F)cc2C(F)F)CC1 [IV-10]	2.84
O=C(Cn1nc(C(F)F)cc1C(F)F)N1CCC(C(=O)OC2CCOC2)(c2nc(C3=NOC(c4c(F)cccc4F)C3)cs2)CC1 (centres unmarked) [Example I-55]	3.39
COC(=O)C1(C(N)=S)CCN(C(=O)Cn2nc(C(F)F)cc2C)CC1 [II-7]	1.68
COC(=O)C1(c2nc(C3=NOC(c4c(F)cccc4F)C3)cs2)CCN(C(=O)Cn2nc(C(F)F)cc2C)CC1 (centres unmarked) [Example I-62]	3.17
COC(=O)C1(c2nc(C3=NOC(c4c(F)cccc4F)C3)cs2)CCN(C(=O)Cn2nc(C(F)F)cc2C(F)F)CC1 (centres unmarked) [Example I-1]	3.44
CCOC(=O)C1(C(N)=S)CCN(C(=O)Cn2nc(C(F)F)cc2C(F)F)CC1 [II-10]	2.26
CC(C)=CCNC(=O)C1(C#N)CCN(C(=O)Nc2ccc(F)cc2)CC1 [IV-44]	2.16
COC(=O)C1(C(N)=S)CCN(C(=O)Nc2cc(C)ccc2C)CC1 [II-15]	2.02
C#CCOc1ccccc1C1CC(c2csc(C3(C(=O)OCc4ccccc4)CCN(C(=O)Cn4nc(C(F)F)cc4C(F)F)CC3)n2)=NO1 (centres unmarked) [Example I-39]	4.34
CSCCOC(=O)C1(C(N)=S)CCN(C(=O)Cn2nc(C(F)F)cc2C(F)F)CC1 [II-2]	2.49
CC(C)(C)OC(=O)C1(C#N)CCN(C(=S)Nc2ccc(OC(F)(F)F)cc2)CC1 [IV-27]	4.01
N#CC1(C(=O)O)CCN(C(=S)Nc2ccc(OC(F)(F)F)cc2)CC1 [IV-33]	2.33
C#CCOc1ccc(F)c(F)c1C1CC(c2csc(C3(C(=O)OCc4ccccc4)CCN(C(=O)Cn4nc(C(F)F)cc4C(F)F)CC3)n2)=NO1 (centres unmarked) [Example I-40]	4.31

same assay, conditions: Table 1, compounds of formula (I); LC-UV, acidic range, 0.1% formic acid in water and acetonitrile as eluent

Compound	Log P[a]
CC(C)OC(=O)C1(c2nc(C3=NOC(c4ccccc4-c4ccccc4)C3)cs2)CCN(C(=O)Cn2nc(C(F)F)cc2C(F)F)CC1 (centres unmarked) [Example I-30]	4.92
CSCCOC(=O)C1(c2nc(C3=NOC(c4ccccc4-c4ccccc4)C3)cs2)CCN(C(=O)Cn2nc(C(F)F)cc2C(F)F)CC1 (centres unmarked) [Example I-48]	4.77
C=CCOC(=O)C1(c2nc(C3=NOC(c4ccccc4-c4ccccc4)C3)cs2)CCN(C(=O)Cn2nc(C(F)F)cc2C(F)F)CC1 (centres unmarked) [Example I-42]	4.72

same assay, conditions: Table 2, compounds of formula (IV); LC-UV, acidic range, 0.1% formic acid in water and acetonitrile as eluent; read-out: Log P[a]

Compound	chromatographic logP
COC(=O)C1(C#N)CCN(C(=O)Cn2nc(C(F)F)cc2C(F)F)CC1 [IV-13, methyl 1-{[3,5-bis(difluoromethyl)-1H-pyrazol-1-yl]acetyl}-4-cyanopiperidine-4-carboxylate]	2.26

same assay, conditions: pH 2.7; synthesis intermediates in preparation examples; read-out: LogP (pH 2.7)

Compound	chromatographic logP
CS(=O)(=O)Oc1ccccc1C1CC(C(=O)CCl)=NO1 (centres unmarked) [2-[3-(chloroacetyl)-4,5-dihydro-1,2-oxazol-5-yl]phenyl methanesulfonate]	2.54
CC(=O)C1=NOC(c2c(Cl)cccc2OS(C)(=O)=O)C1 (centres unmarked) [2-(3-acetyl-4,5-dihydro-1,2-oxazol-5-yl)-3-chlorophenyl methanesulfonate]	2.46
Cn1nc(C(F)F)cc1NC(=O)Oc1ccccc1 [phenyl [3-(difluoromethyl)-1-methyl-1H-pyrazol-5-yl]carbamate]	2.18
